Laboratory results published in patent US9827189B2, “Stable parenteral DNJ compositions” (AMICUS THERAPEUTICS, INC., priority 2013, dated 2017).
Structures can show the parent of a compound that is named as a salt.

Experiments:
[1] = system: cynomolgus monkey whole blood; experiment: Hemolytic potential in cynomolgus monkey whole blood; format: cell-based; conditions: 37 ° C. 30 minutes
Procedure: (§1) 1-DNJ-HCl was dissolved in sodium citrate buffer. 1-DNJ-HCl concentration was 30 mg/mL (resulting free 1-DNJ concentration was 25 mg/mL); sodium citrate buffer concentration was 50 mM at pH 5.0. 1-DNJ-HCl formulation was added to whole blood samples of male human, rat, and cynomolgus monkey. […]. Buffer served as a negative control, while Triton-X 100 (Lysing agent) served as a positive control. Additionally blood sample without any additions was used as a negative control. The samples were stored at 4° C. Blood samples were incubated at 37 ° C. for 30 minutes with the 1-DNJ-HCl formulation, after which the samples were centrifuged. The amount of hemoglobin in the supernatant from each centrifuged sample was measured using a commercially available hemoglobin assay kit (BioAssay Systems, QuantiChrom™ Hemoglobin Assay Kit) and the Tecan microplate reader.

rat whole blood = experiment: Hemolytic potential in rat whole blood; format: cell-based, Sprague Dawley rat; conditions: 37 ° C. 30 minutes
Procedure: as §1

human whole blood = experiment: Hemolytic potential in human whole blood; format: cell-based; conditions: 37 ° C. 30 minutes
Procedure: as §1

[2] = Osmolality of 1-DNJ-HCl in sodium citrate buffer by freezing point; format: physicochemical
Procedure: The molallity of 1-deoxynojirimycin chloride (1-DNJ-HCl) was determined by freezing point depreciation. 1-deoxynojirimycin chloride concentration ranged from 30 mg/mL to 60 mg/mL. Sodium citrate concentration ranged from 20 to 50 mM.

[3] = 500 μL blood mixed with 500 μL sample (30 mg/mL AT2220 or 0.1% Triton X-100)
[4] = 500 μL blood mixed with 500 μL sample, 30 mg/mL AT2220 dilution 1, 0.1% Triton X-100 dilution 100

SMILES: OC[C@H]1NC[C@H](O)[C@@H](O)[C@@H]1O [1-DNJ-HCl, 1-deoxynojirimycin hydrochloride]
- % RBC lysis [1, 3]: 0.1%
- Avg OD (n = 4) [1, 4]: 0.0649
- % RBC lysis (rat whole blood; [3]): −0.3%
- Avg OD (n = 4) (rat whole blood; [4]): 0.3535
- % RBC lysis (human whole blood; [3]): 0.0%
- Avg OD (n = 4) (human whole blood; [4]): 0.0755
- Osmolality ([2]; 1-DNJ-HCl 30 mg/mL, Sodium Citrate Buffer 20 mM): 311 mOsm/kg
- Osmolality ([2]; 1-DNJ-HCl 30 mg/mL, Sodium Citrate Buffer 25 mM): 327 mOsm/kg
- Osmolality ([2]; 1-DNJ-HCl 30 mg/mL, Sodium Citrate Buffer 30 mM): 343 mOsm/kg
- Osmolality ([2]; 1-DNJ-HCl 30 mg/mL, Sodium Citrate Buffer 35 mM): 358 mOsm/kg
- Osmolality ([2]; 1-DNJ-HCl 30 mg/mL, Sodium Citrate Buffer 40 mM): 374 mOsm/kg
- Osmolality ([2]; 1-DNJ-HCl 30 mg/mL, Sodium Citrate Buffer 45 mM): 389 mOsm/kg
- Osmolality ([2]; 1-DNJ-HCl 35 mg/mL, Sodium Citrate Buffer 20 mM): 353 mOsm/kg
- Osmolality ([2]; 1-DNJ-HCl 35 mg/mL, Sodium Citrate Buffer 25 mM): 369 mOsm/kg
- Osmolality ([2]; 1-DNJ-HCl 35 mg/mL, Sodium Citrate Buffer 30 mM): 384 mOsm/kg
- Osmolality ([2]; 1-DNJ-HCl 35 mg/mL, Sodium Citrate Buffer 35 mM): 400 mOsm/kg
- Osmolality ([2]; 1-DNJ-HCl 35 mg/mL, Sodium Citrate Buffer 40 mM): 415 mOsm/kg
- Osmolality ([2]; 1-DNJ-HCl 35 mg/mL, Sodium Citrate Buffer 45 mM): 431 mOsm/kg
- Osmolality ([2]; 1-DNJ-HCl 35 mg/mL, Sodium Citrate Buffer 50 mM): 447 mOsm/kg
- Osmolality ([2]; 1-DNJ-HCl 40 mg/mL, Sodium Citrate Buffer 20 mM): 394 mOsm/kg
- Osmolality ([2]; 1-DNJ-HCl 40 mg/mL, Sodium Citrate Buffer 25 mM): 410 mOsm/kg
- Osmolality ([2]; 1-DNJ-HCl 40 mg/mL, Sodium Citrate Buffer 30 mM): 426 mOsm/kg
- Osmolality ([2]; 1-DNJ-HCl 40 mg/mL, Sodium Citrate Buffer 35 mM): 441 mOsm/kg
- Osmolality ([2]; 1-DNJ-HCl 40 mg/mL, Sodium Citrate Buffer 40 mM): 457 mOsm/kg
- Osmolality ([2]; 1-DNJ-HCl 40 mg/mL, Sodium Citrate Buffer 45 mM): 472 mOsm/kg
- Osmolality ([2]; 1-DNJ-HCl 40 mg/mL, Sodium Citrate Buffer 50 mM): 488 mOsm/kg
- Osmolality ([2]; 1-DNJ-HCl 45 mg/mL, Sodium Citrate Buffer 20 mM): 436 mOsm/kg
- Osmolality ([2]; 1-DNJ-HCl 45 mg/mL, Sodium Citrate Buffer 25 mM): 452 mOsm/kg
- Osmolality ([2]; 1-DNJ-HCl 45 mg/mL, Sodium Citrate Buffer 30 mM): 467 mOsm/kg
- Osmolality ([2]; 1-DNJ-HCl 45 mg/mL, Sodium Citrate Buffer 35 mM): 483 mOsm/kg
- Osmolality ([2]; 1-DNJ-HCl 45 mg/mL, Sodium Citrate Buffer 40 mM): 498 mOsm/kg
- Osmolality ([2]; 1-DNJ-HCl 45 mg/mL, Sodium Citrate Buffer 45 mM): 514 mOsm/kg
- Osmolality ([2]; 1-DNJ-HCl 45 mg/mL, Sodium Citrate Buffer 50 mM): 530 mOsm/kg
- Osmolality ([2]; 1-DNJ-HCl 50 mg/mL, Sodium Citrate Buffer 20 mM): 477 mOsm/kg
- Osmolality ([2]; 1-DNJ-HCl 50 mg/mL, Sodium Citrate Buffer 25 mM): 493 mOsm/kg
- Osmolality ([2]; 1-DNJ-HCl 50 mg/mL, Sodium Citrate Buffer 30 mM): 509 mOsm/kg
- Osmolality ([2]; 1-DNJ-HCl 50 mg/mL, Sodium Citrate Buffer 35 mM): 524 mOsm/kg
- Osmolality ([2]; 1-DNJ-HCl 50 mg/mL, Sodium Citrate Buffer 40 mM): 540 mOsm/kg
- Osmolality ([2]; 1-DNJ-HCl 50 mg/mL, Sodium Citrate Buffer 45 mM): 555 mOsm/kg
- Osmolality ([2]; 1-DNJ-HCl 50 mg/mL, Sodium Citrate Buffer 50 mM): 571 mOsm/kg
- Osmolality ([2]; 1-DNJ-HCl 55 mg/mL, Sodium Citrate Buffer 20 mM): 519 mOsm/kg
- Osmolality ([2]; 1-DNJ-HCl 55 mg/mL, Sodium Citrate Buffer 25 mM): 535 mOsm/kg
- Osmolality ([2]; 1-DNJ-HCl 55 mg/mL, Sodium Citrate Buffer 30 mM): 550 mOsm/kg
- Osmolality ([2]; 1-DNJ-HCl 55 mg/mL, Sodium Citrate Buffer 35 mM): 566 mOsm/kg
- Osmolality ([2]; 1-DNJ-HCl 55 mg/mL, Sodium Citrate Buffer 40 mM): 581 mOsm/kg
- Osmolality ([2]; 1-DNJ-HCl 55 mg/mL, Sodium Citrate Buffer 45 mM): 597 mOsm/kg
- Osmolality ([2]; 1-DNJ-HCl 55 mg/mL, Sodium Citrate Buffer 50 mM): 613 mOsm/kg
- Osmolality ([2]; 1-DNJ-HCl 60 mg/mL, Sodium Citrate Buffer 20 mM): 560 mOsm/kg
- Osmolality ([2]; 1-DNJ-HCl 60 mg/mL, Sodium Citrate Buffer 25 mM): 576 mOsm/kg
- Osmolality ([2]; 1-DNJ-HCl 60 mg/mL, Sodium Citrate Buffer 30 mM): 592 mOsm/kg
- Osmolality ([2]; 1-DNJ-HCl 60 mg/mL, Sodium Citrate Buffer 35 mM): 607 mOsm/kg
- Osmolality ([2]; 1-DNJ-HCl 60 mg/mL, Sodium Citrate Buffer 40 mM): 623 mOsm/kg
- Osmolality ([2]; 1-DNJ-HCl 60 mg/mL, Sodium Citrate Buffer 45 mM): 638 mOsm/kg
- Osmolality ([2]; 1-DNJ-HCl 60 mg/mL, Sodium Citrate Buffer 50 mM): 654 mOsm/kg
